Data: paper PMC10893060, “Synthesis and Study of the Structure–Activity Relationship of Antiproliferative N-Substituted Isosteviol-Based 1,3-Aminoalcohols” (Pharmaceuticals, 2024)

What was measured:
HeLa = experiment: MTT antiproliferative assay, HeLa; format: cell-based; settings: Homo sapiens, 72 h, no IC50 calculated when less than 50% inhibition at 10 μM
Text: (§1) The antiproliferative activities of the prepared diterpene analogues were studied using an MTT assay on a panel of human adherent cancer lines, including cells from cervical (HeLa), breast (MDA-MB-231, MCF-7), and ovary cancers (A2780), as given in Figure 1 and Table S1 in the Supplementary Materials. A non-malignant fibroblast cell line (NIH/3T3) was also utilised to obtain preliminary information on the cancer selectivity of the tested compounds. Based on the obtained activities, some conclusions could be drawn regarding the structure–activity relationships (SARs). Since neither the key intermediate benzyl ester of hydroxylaldehyde 4 nor the N-Boc protected aminoalcohols (6, 7, 11, 12) or even compound 8 with a free carboxylic function exerted remarkable antiproliferative effects (except for 12 against A2780 ovarian cancer cells), we could conclude that the simultaneous presence of the ester function and the basic secondary amino function were essential for the inhibition of cell growth. […] All active molecules inhibited considerably the proliferation of non-malignant cells, which meant that most currently presented agents were not optimal for further investigations of their anticancer properties.
(§2) The growth-inhibitory effects of the isosteviol-based 1,3-aminoalcohols were determined by a standard MTT (3-(4,5-dimethylthiazol-2-yl)-2,5-diphenyltetrazolium bromide) assay on a panel containing five cell lines, including Hela (cervical cancer), MDA-MB-231 and MCF-7 (breast cancers), and A2780 ovarian cancer cells. All cell lines were purchased from the European Collection of Cell Cultures (Salisbury, UK). The cells were maintained in a minimal essential medium supplemented with 10% foetal bovine serum, 1% non-essential amino acids, and 1% penicillin–streptomycin at 37 °C in a humidified atmosphere containing 5% CO2. All media and supplements were obtained from Lonza Group Ltd. (Basel, Switzerland). Cancer cells were seeded into 96-well plates (5000 cells/well); after overnight incubation, the test compound was added in two different concentrations (10 µM and 30 µM) and incubated for another 72 h under cell-culturing conditions. In the next step, 20 μL of 5 mg/mL of an MTT solution was added to each well and incubated for a further 4 h. The medium was removed and the precipitated formazan crystals were dissolved in DMSO after 60 min of shaking at 37 °C. As a final step, the absorbance was measured at 545 nm by using a microplate reader. Untreated cells were included as controls. […] Two independent experiments were performed with five wells for each condition. Calculations were performed using the GraphPad Prism 10.0 software (GraphPad Software Inc., San Diego, CA, USA).

A2780 = experiment: MTT antiproliferative assay, A2780; format: cell-based; settings: Homo sapiens, 72 h, no IC50 calculated when less than 50% inhibition at 10 μM
Text: as §1, §2

MDA-MB-231 = experiment: MTT antiproliferative assay, MDA-MB-231; format: cell-based; settings: Homo sapiens, 72 h, no IC50 calculated when less than 50% inhibition at 10 μM
Text: as §1, §2

MCF-7 = experiment: MTT antiproliferative assay, MCF-7; format: cell-based; settings: Homo sapiens, MCF7, 72 h, no IC50 calculated when less than 50% inhibition at 10 μM
Text: as §1, §2

NIH/3T3 = experiment: MTT assay on non-malignant fibroblasts; format: cell-based; settings: Mus musculus, NIH3T3, 72 h, no IC50 calculated when less than 50% inhibition at 10 μM
Text: as §1, §2

[1] = tested on: breast carcinoma MDA-MB-231; parameters: method as in PMID 26101532; settings: MDA-MB-231, third of three values, order assumed; cited from earlier work

| Compound | IC50 (HeLa) | IC50 (A2780) | IC50 (MDA-MB-231) | IC50 (MCF-7) | IC50 (NIH/3T3) | melting point | IC50 [1] |
| --- | --- | --- | --- | --- | --- | --- | --- |
| C[C@]12CCC3[C@](CC[C@@H]4[C@](C)(C(=O)O)CCC[C@@]34C)(C1)[C@H](CNCc1ccc(F)cc1)[C@H]2O (stereo partly drawn) [Compound 8, (4R,4aS,6aS,7R,8R,9S,11bS)-7-(((4-Fluorobenzyl)amino)methyl)-8-hydroxy-4,9,11b-trimethyltetradecahydro-6a,9-methanocyclohepta[a]naphthalene-4-carboxylic Acid] | > 10 µM | > 10 µM | > 10 µM | > 10 µM | > 10 µM | 149 to 150 °C |  |
| C#CCOC(=O)[C@]1(C)CCC[C@@]2(C)C3CC[C@@]4(C)C[C@]3(CC[C@H]12)[C@H](CNCc1ccc(F)cc1)[C@H]4O (stereo partly drawn) [Compound 14, (4R,4aS,6aS,7R,8R,9S,11bS)-Prop-2-yn-1-yl 7-(((4-fluorobenzyl)amino)methyl)-8-hydroxy-4,9,11b-trimethyltetradecahydro-6a,9-methanocyclohepta[a]naphthalene-4-carboxylate] | 2.7 µM | 1.36 µM | 2.23 µM | 1.54 µM | 5.92 µM | 104 to 105 °C |  |
| CC[C@H](NC[C@@H]1[C@@H](O)[C@@]2(C)CCC3[C@]1(CC[C@@H]1[C@](C)(C(=O)OC)CCC[C@@]31C)C2)c1ccccc1 (stereo partly drawn) [Compound 25, (4R,4aS,6aS,7R,8R,9S,11bS)-Methyl 8-hydroxy-4,9,11b-trimethyl-7-((((S)-1-phenylpropyl)amino)methyl)tetradecahydro-6a,9-methanocyclohepta[a]naphthalene-4-carboxylate] | 4.43 µM | 4.83 µM | 6.53 µM | 4.17 µM | 3.98 µM |  |  |
| C=CC(=O)OCCCCOC(=O)[C@]1(C)CCC[C@@]2(C)C3CC[C@@]4(C)C[C@]3(CC[C@H]12)[C@H](CN(Cc1ccc(F)cc1)C(=O)OC(C)(C)C)[C@H]4O (stereo partly drawn) [Compound 11, (4R,4aS,6aS,7R,8R,9S,11bS)-4-(Acryloyloxy)butyl 7-(((tert-butoxycarbonyl)(4-fluorobenzyl)amino)methyl)-8-hydroxy-4,9,11b-trimethyltetradecahydro-6a,9-methanocyclohepta[a]naphthalene-4-carboxylate] | > 10 µM | > 10 µM | > 10 µM | > 10 µM | > 10 µM |  |  |
| COC(=O)[C@]1(C)CCC[C@@]2(C)C3CC[C@@]4(C)C[C@]3(CC[C@H]12)[C@H](CN[C@@H](C)c1ccc2ccccc2c1)[C@H]4O (stereo partly drawn) [Compound 26, (4R,4aS,6aS,7R,8R,9S,11bS)-Methyl 8-hydroxy-4,9,11b-trimethyl-7-((((S)-1-(naphthalen-2-yl)ethyl)amino)methyl)tetradecahydro-6a,9-methanocyclohepta[a]naphthalene-4-carboxylate] | 4.33 µM | 4.11 µM | 6.07 µM | 3.67 µM | 3.12 µM |  |  |
| C[C@H](NC[C@@H]1[C@@H](O)[C@@]2(C)CCC3[C@]1(CC[C@@H]1[C@](C)(C(=O)OCc4ccccc4)CCC[C@@]31C)C2)c1cccc2ccccc12 (stereo partly drawn) [Compound 19, (4R,4aS,6aS,7R,8R,9S,11bS)-Benzyl 8-hydroxy-4,9,11b-trimethyl-7-((((S)-1-(naphthalen-1-yl)ethyl)amino)methyl)tetradecahydro-6a,9-methanocyclohepta[a]naphthalene-4-carboxylate] | 6.08 µM | 4.41 µM | 7.29 µM | 5.59 µM | 5.44 µM |  |  |
| COc1cccc2c1C(=O)c1c(O)c3c(c(O)c1C2=O)C[C@@](O)(C(=O)CO)C[C@@H]3O[C@H]1C[C@H](N)[C@H](O)[C@H](C)O1 [Adriamycin] |  |  |  |  |  |  | 2.26 µM |
| CC[C@@H](NC[C@@H]1[C@@H](O)[C@@]2(C)CCC3[C@]1(CC[C@@H]1[C@](C)(C(=O)OCc4ccccc4)CCC[C@@]31C)C2)c1ccccc1 (stereo partly drawn) [Compound 16, (4R,4aS,6aS,7R,8R,9S,11bS)-Benzyl 8-hydroxy-4,9,11b-trimethyl-7-((((R)-1-phenylpropyl)amino)methyl)tetradecahydro-6a,9-methanocyclohepta[a]naphthalene-4-carboxylate] | 3.86 µM | 4 µM | 4.79 µM | 3.48 µM | 1.37 µM |  |  |
